Source: US8258186B2, “Pharmaceutical for oral delivery comprising MGBG” (Pathologica, LLC, priority 2009, dated 2012)

Assays:
[1] = Multi-dose rat pharmacokinetic and tolerability study; type: in vivo, Sprague Dawley rats; settings: for AUC / CL/F / fold increase in mean AUCall compared to Study Day 1 / AUC(0-t) / Cmax / Tmax: male, Sprague Dawley; for fold increase in mean AUCall compared to Study Day 1: 7 days
Method: The purpose of this study was to determine the pharmacokinetic (PK) properties and tolerability of MGBG in rats. Additionally, recovery from any toxic effects was assessed after a seven day non-dosing period.
Three per group of male Sprague Dawley (CD® MS, Charles River) aged 7-9 weeks and weighing 222.7-252.0 g were administered by oral (PO) gavage, twice daily, at 10, 20, or 30 mg/kg/dose (20, 40, or 60 mg/kg/day) for seven consecutive days. A washout period of seven days followed. Collection of approximately 200 μL of whole blood was collected from the tail vein of all animals in Groups 5, 6, and 7 were bled at six (Day 1), seven (Day 7), or one (Days 9 through 15) time point(s), respectively. Whole blood samples were collected in a lithium heparin microtainer and processed to plasma by centrifugation. Plasma was frozen at −70° C. Pharmacokinetic analyses were performed on the individual animal plasma concentration versus time data for MGBG using WinNonlin (linear trapezoidal rule for AUC calculations). Nominal dose values and sampling times were used for calculations. For Study Day 7, the reported values for MGBG concentrations at time zero were used in the calculations of AUC. Study Day 1 disposition parameters were not reported due to insufficient terminal phase data to adequately characterize these parameters.
On Study Day 7, evidence of dose-dependent dispositions for Cl/Fobs and elimination half-life were observed as mean parameter values for Cl/Fobs and elimination half-life increased and decreased, respectively, with increasing dose levels.
Based on the findings of this exploratory study, the no observable adverse effect level (NOAEL) for MGBG administered by PO gavage twice daily for seven consecutive days to male Sprague Dawley rats is 30 mg/kg/dose (60 mg/kg/day).

[2] = test system: carrageenan-induced paw edema and hyperalgesia; test: Carrageenan paw test for edema and hyperalgesia; type: in vivo, Swiss Webster mice
Description: Injection of carrageenan subcutaneously into the hind foot (paw) of a rat or mouse induces robust inflammation and pain. The inflammatory response begins 1-2 hrs post-carrageenan injection and persists for at least five hours following inoculation. In addition, the animal's inflamed hind paw is sensitive to noxious (hyperaglesia) or innocuous (allodynia) stimuli, compared to the contralateral hind paw. Compounds can be evaluated in this model for anti-hyperalgesia and anti-inflammatory activity. […] It is possible that some compounds will affect the inflamed paw and not affect the responses of the contralateral paw.
Embodiments of the carrageenan foot edema test are performed with materials, reagents and procedures essentially as described by Winter, et al., (Proc. Soc. Exp. Biol. Med., 111, 544 (1962)). Prophylactic and therapeutic embodiments have been developed, and are known in the art. The animals are evaluated for their responsiveness to noxious (paw pinch, plantar test) or innocuous (cold plate, von Frey filaments) stimuli. In the following protocol, mice were used.
Animals, compounds, and dosing. Healthy young male Swiss Webster mice in which weight variation of the mice will not exceed ±20% of the mean were used for the study. […]
Paw Edema. Immediately before sub-plantar administration of carrageenan and after 2, 3, 5 and 24 hours post carrageenan, mouse paw volume was measured using the plethysmometer (Ugo Basile). The assessment of edema was expressed as the mean increase in paw volume relative to control.
Assessment of Paw Withdrawal Latency. Prior to sub-plantar administration of carrageenan and after 0.5, 2, 3, 5, and 24 hours post-carrageenan, the latency of withdrawal response was determined by placing mice on a hot plate analgesia meter with surface temperature maintained at 51° C. […] Paw withdrawal latency is calculated as Δt=right paw withdrawal−left paw withdrawal. […]

For `CC(/C=N/NC(=N)N)=N\NC(=N)N` [MGBG, 1,1′[methylethanediylidene]dinitrilodiguanidine], the “increase of systemic exposure (Cmax and AUCall) with increasing dose” value ([1]; in vivo) was “slightly less than dose-proportional”, the “hematology parameters versus control group” value ([1]; in vivo, 60 mg/kg/day) was “lower reticulocyte count and percentage” and the “serum chemistry parameters versus control group” value ([1]; in vivo, 60 mg/kg/day) was “osmolality and electrolyte changes consistent with slight dehydration”. For the same molecule, the NOAEL at 7 days ([1]; in vivo, male Sprague Dawley rats, PO gavage twice daily, seven consecutive days, read-out: no observable adverse effect level (NOAEL)) was 60 mg/kg/day, the “systemic exposure, plasma Day 1 and Day 7” value ([1]; in vivo, po) was “systemic exposure to the test article at all time points” and the AUC ([1]; in vivo, po, 20 mg/kg/day) was 7930 ng·h/mL. The CL/F ([1]; in vivo, po, 20 mg/kg/day) was 24.3 mL/min/kg, the “fold increase in mean AUCall compared to Study Day 1” value (shortened to “fold increase in mean AUCall”) ([1]; in vivo, po, 20 mg/kg/day) was 3.77 fold and the AUC(0-t) ([1]; in vivo, po, 20 mg/kg/day, AUC0-12) was 773 ng·h/mL. The AUC(0-t) ([1]; in vivo, po, 20 mg/kg/day, AUC0-24) was 1750 ng·h/mL, the Cmax ([1]; in vivo, po, 20 mg/kg/day) was 124 ng/mL and the Tmax ([1]; in vivo, po, 20 mg/kg/day, Tmax) was 10 h. The AUC ([1]; in vivo, po, 40 mg/kg/day) was 13700 ng·h/mL, the CL/F ([1]; in vivo, po, 40 mg/kg/day) was 28.2 mL/min/kg and the “fold increase in mean AUCall” value ([1]; in vivo, po, 40 mg/kg/day) was 4.03 fold. For the same molecule, the AUC(0-t) ([1]; in vivo, po, 40 mg/kg/day, AUC0-12) was 1380 ng·h/mL, the AUC(0-t) ([1]; in vivo, po, 40 mg/kg/day, AUC0-24) was 2980 ng·h/mL and the Cmax ([1]; in vivo, po, 40 mg/kg/day) was 175 ng/mL. The Tmax ([1]; in vivo, po, 40 mg/kg/day, Tmax) was 7.33 h, the AUC ([1]; in vivo, po, 60 mg/kg/day) was 17100 ng·h/mL and the CL/F ([1]; in vivo, po, 60 mg/kg/day) was 35.8 mL/min/kg. For the same molecule, the “fold increase in mean AUCall” value ([1]; in vivo, po, 60 mg/kg/day) was 3.68 fold, the AUC(0-t) ([1]; in vivo, po, 60 mg/kg/day, AUC0-12) was 2170 ng·h/mL and the AUC(0-t) ([1]; in vivo, po, 60 mg/kg/day, AUC0-24) was 4380 ng·h/mL. The Cmax ([1]; in vivo, po, 60 mg/kg/day) was 296 ng/mL, the Tmax ([1]; in vivo, po, Tmax values over the dose range evaluated) was 3.33 to 14 h and the “gross or microscopic lesions at terminal sacrifice” value ([1]; test article-treated animals) was “No gross or microscopic lesions were observed”. For the same molecule, the reduction of edema ([2]; mice, MGBG PO BID) was “efficacious”, the reduction of hyperalgesia ([2]; mice, MGBG PO BID, hot plate paw withdrawal latency) was “efficacious” and the “efficacy at lower doses” value ([2]; murine carrageenan models, 3 mg/kg PO BID and 10 mg/kg PO BID) was “efficacy”.
